Here are results for 8 compounds from patent US7005526B2, “Thioether derivatives” (Hoffmann-La Roche Inc., priority 2004, dated 2006).

Usually inhibition stands for the percentage by which the read-out fell short of the control. The melting point is the temperature, or range, at which the solid turns liquid.

Molecules are shown by their SMILES.

For the first data set, the target named is T1, HER-2 (Homo sapiens, UniProt P04626).
T1 construct: endogenous in cells; host or cells: Calu-3 (ATCC HTB-55) human non-small-cell lung cancer cells
T1 sequence (P04626 23-1255): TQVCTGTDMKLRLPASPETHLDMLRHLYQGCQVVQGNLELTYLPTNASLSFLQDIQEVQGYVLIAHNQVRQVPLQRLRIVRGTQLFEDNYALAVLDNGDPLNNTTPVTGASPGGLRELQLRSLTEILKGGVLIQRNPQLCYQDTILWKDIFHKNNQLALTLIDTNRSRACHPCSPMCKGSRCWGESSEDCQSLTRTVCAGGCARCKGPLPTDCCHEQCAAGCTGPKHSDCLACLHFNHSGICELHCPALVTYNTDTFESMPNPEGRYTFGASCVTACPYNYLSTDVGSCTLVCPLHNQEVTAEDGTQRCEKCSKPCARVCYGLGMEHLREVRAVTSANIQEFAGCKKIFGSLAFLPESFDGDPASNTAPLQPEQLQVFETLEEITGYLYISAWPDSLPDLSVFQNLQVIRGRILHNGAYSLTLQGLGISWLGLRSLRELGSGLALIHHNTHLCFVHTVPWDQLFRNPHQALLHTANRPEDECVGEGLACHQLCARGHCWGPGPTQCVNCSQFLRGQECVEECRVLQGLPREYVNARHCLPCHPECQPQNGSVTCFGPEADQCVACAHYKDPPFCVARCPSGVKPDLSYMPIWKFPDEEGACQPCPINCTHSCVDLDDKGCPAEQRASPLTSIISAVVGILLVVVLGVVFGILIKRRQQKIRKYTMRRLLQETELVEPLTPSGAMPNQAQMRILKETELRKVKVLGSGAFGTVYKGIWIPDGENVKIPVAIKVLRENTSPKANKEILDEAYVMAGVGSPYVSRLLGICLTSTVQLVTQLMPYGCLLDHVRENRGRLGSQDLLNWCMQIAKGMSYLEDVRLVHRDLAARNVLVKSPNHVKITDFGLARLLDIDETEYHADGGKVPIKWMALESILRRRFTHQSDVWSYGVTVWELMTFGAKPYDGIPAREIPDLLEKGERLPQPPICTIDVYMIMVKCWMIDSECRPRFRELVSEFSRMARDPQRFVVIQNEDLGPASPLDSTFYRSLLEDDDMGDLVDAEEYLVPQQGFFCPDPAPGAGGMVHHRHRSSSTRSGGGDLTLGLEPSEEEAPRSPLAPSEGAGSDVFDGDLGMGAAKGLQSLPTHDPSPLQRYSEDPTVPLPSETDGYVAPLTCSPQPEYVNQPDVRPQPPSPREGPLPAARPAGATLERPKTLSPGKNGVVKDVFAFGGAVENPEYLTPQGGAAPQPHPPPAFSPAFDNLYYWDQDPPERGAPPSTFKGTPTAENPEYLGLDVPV
In words: Inhibition of HER-2 phosphorylation in Calu-3 tumor cell line. The settings on record: compound concentration 1 μM; Calu-3 cells, 16 h incubation; pY 1248 in HER-2; relative to DMSO control; read-out: Percent inhibition of HER-2-phosphorylation. In kind it is cell-based. Here is the method: Inhibition of HER-2 Phosphorylation in Calu-3 Tumor Cell Line
2×10^5 Calu-3 (ATTC HTB-55) cells per well were plated in a 12-well plate. After 4 days cells were starved for 16 h in Dulbecco's Modified Eagle Medium (DMEM)/0.5% Fetal Calf Serum (FCS)/1% Glutamine. During this 16 h period cells were incubated with a solution of the test compound in dimethylsulfoxide (DMSO), so that the final concentration of the compound is 1 μM and the final volume of DMSO is 0.5%. Afterwards cells were lysed in lyses buffer containing 1% octyl phenol ethoxylate (Triton®X-100), 10% Glycerol, 1 mM Ethylene glycol-bis(2-aminoethylether)-N,N,N′,N′-tetraacetic acid (EGTA), 1.5 mM MgCl2, 150 mM NaCl, 50 mM 4-(2-hydroxyethyl)-1-piperazineethanesulfonic acid (HEPES) buffer pH 7.5, 1 mM Phenylmethylsulfonyl fluoride (PMSF), 10 μg/mL Aprotinin (a naturally occurring protein that is obtained and purified from cow's lungs) and […] Orthovanadate (Na3VO4). Cell lysates were analyzed on a Sodium Dodecyl Sulfate Polyacrylamide Gel Electrophoresis (SDS PAGE) and after transfer to a nitrocellulose membrane detected with an antibody specifically recognizing the pY 1248 in HER-2 (phosphorylated tyrosine residue 1248 of human epidermal receptor 2). After incubation with an anti rabbit antibody coupled to POD (Peroxidase available from Biorad, Munich, Germany) signals were detected by chemiluminescence (ECL, Amersham). Inhibition of HER-2 phosphorylation is calculated as percentage of the control, which is treated with DMSO only. This percentage was calculated according to the following formula: Inhibition in %=100−(Phosphorylated-HER2-Signal of Test Sample*100/Phosphorylated-HER2-Signal DMSO-control).
Take `Fc1cc(Cl)ccc1/C=C/c1nc(COc2ccc(CSCCn3ccnn3)cc2)co1` [Example 9, 1-[2-(4-{2-[2-(E)-(4-Chloro-2-fluoro-phenyl)-vinyl]-oxazol-4-ylmethoxy}-benzylsulfanyl)-ethyl]-1H-[1,2,3]triazole]: the inhibition at 1 µM fell in the range of 65 to 80%.

Regarding `[O-][S+](CCn1ccnn1)Cc1ccc(OCc2coc(/C=C/c3ccc(C(F)(F)F)cc3F)n2)cc1` (centres unmarked) [Example 11, 1-[2-(4-{2-[2-(E)-(2-Fluoro-4-trifluoromethyl-phenyl)-vinyl]-oxazol-4-ylmethoxy}-phenylmethanesulfinyl)-ethyl]-1H-[1,2,3]triazole], the inhibition at 1 µM is above 80%.

Turning to `[O-][S+](CCn1ccnn1)Cc1ccc(OCc2coc(/C=C/c3ccc(OC(F)(F)F)cc3)n2)cc1` (centres unmarked) [Example 3, 1-[2-(4-{2-[2-(E)-(4-Trifluoromethoxy-phenyl)-vinyl]-oxazol-4-ylmethoxy}-phenylmethanesulfinyl)-ethyl]-1H-[1,2,3]triazole], the inhibition at 1 µM was above 80%.

Take `FC(F)(F)c1ccc(C=Cc2nc(COc3ccc(CSCCn4ccnn4)cc3)co2)cc1` [Example 6, 1-[2-(4-{2-[2-(4-Trifluoromethyl-phenyl)-vinyl]-oxazol-4-ylmethoxy}-benzylsulfanyl)-ethyl]-1H-[1,2,3]triazole]: the inhibition at 1 µM lay within 55 to 65%.

Regarding `Fc1cc(C(F)(F)F)ccc1/C=C/c1nc(COc2ccc(CSCCn3ccnn3)cc2)co1` [Example 7, 1-[2-(4-{2-[2-(E)-(2-Fluoro-4-trifluoromethyl-phenyl)-vinyl]-oxazol-4-ylmethoxy}-benzylsulfanyl)-ethyl]-1H-[1,2,3]triazole], the inhibition at 1 µM was above 80%.

Take `O=S(=O)(CCn1ccnn1)Cc1ccc(OCc2coc(/C=C/c3ccc(C(F)(F)F)cc3F)n2)cc1` [Example 10, 1-[2-(4-{2-[2-(E)-(2-Fluoro-4-trifluoromethyl-phenyl)-vinyl]-oxazol-4-ylmethoxy}-phenylmethanesulfonyl)-ethyl]-1H-[1,2,3]triazole]: the inhibition at 1 µM was in the range of 55 to 65%.

For `FC(F)(F)Oc1ccc(C=Cc2nc(COc3ccc(CSCCn4ccnn4)cc3)co2)cc1` [Example 1, 1-[2-(4-{2-[2-(4-Trifluoromethoxy-phenyl)-vinyl]-oxazol-4-ylmethoxy}-benzylsulfanyl)-ethyl]-1H-[1,2,3]triazole], the inhibition at 1 µM lay within 65 to 80%.

Test system in a further data set: not given
Test: not given
Conditions: not given
For the compound `[O-][S+](CCn1ccnn1)Cc1ccc(OCc2coc(C=Cc3ccc(SC(F)(F)F)cc3)n2)cc1` (centres unmarked) [Example 4, 1-[2-(4-{2-[2-(4-Trifluoromethylsulfanyl-phenyl)-vinyl]-oxazol-4-ylmethoxy}-phenylmethanesulfinyl)-ethyl]-1H-[1,2,3]triazole], the melting point was 182 to 184 °C.
